Where two headings read alike, the source gives them in different places.
Columns and labels:
[1] = test system: HCV sub-genomic replicon, GS4.3; assay: Quantitation by ELISA of NPTII in the HCV sub-genomic replicon, GS4.3, Section B; type: cell-based; settings: Hepatitis C virus, read-out: Replicon EC50
Text: Quantitation by ELISA of the Selectable Marker Protein, Neomycin Phosphotransferase II (NPTII) in the HCV Sub-Genomic Replicon, GS4.3
The HCV sub-genomic replicon (1377/NS3-3′, accession No. AJ242652), stably maintained in HuH-7 hepatoma cells, was created by Lohmann et al. Science 285: 110-113 (1999). The replicon-containing cell culture, designated GS4.3, was obtained from Dr. Christoph Seeger of the Institute for Cancer Research, Fox Chase Cancer Center, Philadelphia, Pa.
GS4.3 cells were maintained at 37° C., 5% CO2, in DMEM (Gibco 11965-092) supplemented with L-glutamine 200 mM (100×) (Gibco25030-081), non-essential amino acids (NEAA)(Biowhittaker 13-114E), heat-inactivated (HI) Fetal Bovine Serum(FBS)(Hyclone SH3007.03) and 750 μg/ml geneticin (G418)(Gibco 10131-035). Cells were sub-divided 1:3 or 4 every 2-3 days.
24 hours prior to the assay, GS4.3 cells were collected, counted, and plated in 96-well plates (Costar 3585) at 7500 cells/well in 100 μl standard maintenance medium (above) and incubated in the conditions above. To initiate the assay, culture medium was removed, cells were washed once with PBS (Gibco 10010-023) and 90 μl Assay Medium (DMEM, L-glutamine, NEAA, 10% HI FBS, no G418) was added. Inhibitors were made as a 10× stock in Assay Medium, (3-fold dilutions from 10 μM to […] final concentration, final DMSO concentration 1%), 10 μl were added to duplicate wells, plates were rocked to mix, and incubated as above for 72 h.
An NPTII ELISA kit was obtained from AGDIA, Inc. (Compound direct ELISA test system for Neomycin Phosphotransferase II, PSP 73000/4800). Manufacturer's instructions were followed, with some modifications. 10×PEB-1 lysis buffer was made up to include 500 μM PMSF (Sigma P7626, 50 mM stock in isopropanol). After 72 h incubation, cells were washed once with PBS and 150 μl PEB-1 with PMSF was added per well. Plates were agitated vigorously for 15 minutes, room temperature, then frozen at −70° C. Plates were thawed, lysates were mixed thoroughly, and 100 μl were applied to an NPTII Elisa plate. A standard curve was made. Lysate from DMSO-treated control cells was pooled, serially diluted with PEB-1 with PMSF, and applied to duplicate wells of the ELISA plate, in a range of initial lysate amount of 150u1-2.5 ul. In addition, 100 μl buffer alone was applied in duplicate as a blank. Plates were sealed and gently agitated at room temperature for 2 h. Following capture incubation, the plates were washed 5×300 μl with PBS-T (0.5% Tween-20, PBS-T was supplied in the ELISA kit). For detection, a 1× dilution of enzyme conjugate diluent MRS-2 (5×) was made in PBS-T, into which 1:100 dilutions of enzyme conjugates A and B were added, as per instructions. Plates were resealed, and incubated with agitation, covered, room temperature, for 2 h. The washing was then repeated and 100 μl of room temperature TMB substrate was added. After approximately 30 minutes incubation (room temperature, agitation, covered), the reaction was stopped with 50 μl 3M sulfuric acid. Plates were read at 450 nm on a Molecular Devices Versamax plate reader.
Inhibitor effect was expressed as a percentage of DMSO-treated control signal, and inhibition curves were calculated using a 4-parameter equation: y=A+((B−A)/(1+((C/x)^D))), where C is half-maximal activity or EC50.

NS3-NS4A protease = molecular target: T1, NS3-NS4A protease (Hepatitis C virus genotype 1a, UniProt P27958); assay: NS3-NS4A protease assay (NS3 inhibition assay, RETS1 substrate), Section B; type: biochemical
T1 construct: Recombinant E. coli or Baculovirus full-length NS3 was diluted to 3.33 μM with assay buffer; made in house; host or cells: E. coli or baculovirus (BV) system
Summary of the method: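 Full-length NS3 (E. coli or baculovirus) precomplexed with excess NS4A-2 peptide, run at 2 nM (E. coli) or 3 nM (BV) NS3; compounds pre-incubated 10 min at room temperature before RETS1 substrate. Fluorescence (ex 335/em 495 nm) read kinetically 30 min; IC50 from four-parameter fit, converted to Ki via Ki=IC50/(1+[S]/Km).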

T1 sequence (P27958 1027-1657): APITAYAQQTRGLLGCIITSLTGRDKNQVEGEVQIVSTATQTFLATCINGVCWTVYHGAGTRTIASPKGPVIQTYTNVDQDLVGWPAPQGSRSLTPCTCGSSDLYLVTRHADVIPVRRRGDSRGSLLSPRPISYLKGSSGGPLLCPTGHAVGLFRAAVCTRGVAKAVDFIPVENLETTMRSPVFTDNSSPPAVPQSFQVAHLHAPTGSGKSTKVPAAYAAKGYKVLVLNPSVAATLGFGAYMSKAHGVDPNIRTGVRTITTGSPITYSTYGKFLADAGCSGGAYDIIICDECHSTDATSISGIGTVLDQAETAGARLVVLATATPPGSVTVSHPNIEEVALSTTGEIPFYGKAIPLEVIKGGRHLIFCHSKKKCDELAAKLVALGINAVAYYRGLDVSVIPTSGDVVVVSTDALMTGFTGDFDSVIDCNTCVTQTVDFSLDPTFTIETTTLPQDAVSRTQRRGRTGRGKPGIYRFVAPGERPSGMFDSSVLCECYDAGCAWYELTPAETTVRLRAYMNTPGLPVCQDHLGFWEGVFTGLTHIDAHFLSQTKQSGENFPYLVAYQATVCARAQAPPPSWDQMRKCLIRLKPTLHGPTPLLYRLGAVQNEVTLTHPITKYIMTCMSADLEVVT

Structure (SMILES) | EC50 ([1]; GS4.3 cells, 72 h incubation) [nM] | IC50 (NS3-NS4A protease; read-out: NS3-NS4A IC50) [nM] | EC50 ([1]; 72 h) [nM] | IC50 (NS3-NS4A protease) [nM]
O=C(NC1CCCC1)N[C@H]1CCCCC/C=C\[C@@H]2C[C@@]2(C(=O)NS(=O)(=O)C2CC2)NC(=O)[C@@H]2C[C@@H](NC(=O)N3Cc4ccccc4C3)CN2C1=O [AR00304014, (1S,4R,6S,14S,18R)-1,3-Dihydro-isoindole-2-carboxylic acid [14-(3-cyclopentyl-ureido)-4-cyclopropanesulfonylaminocarbonyl-2,15-dioxo-3,16-diaza-tricyclo[14.3.0.0^4,6]nonadec-7-en-18-yl]-amide] | < 100 | < 100 | – | –
CC(C)(C)OC(=O)N[C@H]1CCCCC/C=C\[C@@H]2C[C@@]2(C(=O)O)NC(=O)[C@@H]2C[C@@H](OC(=O)N3CCc4cc(F)ccc4C3)CN2C1=O [AR00304063, (1S,4R,6S,14S,18R)-14-tert-Butoxycarbonylamino-18-(6-fluoro-3,4-dihydro-1H-isoquinoline-2-carbonyloxy)-2,15-dioxo-3,16-diaza-tricyclo[14.3.0.0^4,6]nonadec-7-ene-4-carboxylic acid] | < 10000 | < 1000 | – | –
CC(C)(C)OC(=O)N[C@H]1CCCCC/C=C\[C@@H]2C[C@@]2(C(=O)O)NC(=O)[C@@H]2C[C@@H](OC(=O)N3Cc4ccccc4C4(CCC4)C3)CN2C1=O [AR00304065, (1S,4R,6S,14S,18R)-14-tert-Butoxycarbonylamino-18-(4,4-spirocyclobutyl-3,4-dihydro-1H-isoquinoline-2-carbonyloxy)-2,15-dioxo-3,16-diaza-tricyclo[14.3.0.0^4,6]nonadec-7-ene-4-carboxylic acid] | < 10000 | < 1000 | – | –
CC(C)(C)OC(=O)N[C@H]1CCCCCC=C[C@@H]2C[C@@]2(C(=O)O)NC(=O)[C@@H]2C[C@@H](OC(=O)N3Cc4ccccc4C(C)(C)C3)CN2C1=O [AR00304066, (1S,4R,6S,14S,18R)-14-tert-Butoxycarbonylamino-18-(4,4-dimethyl-3,4-dihydro-1H-isoquinoline-2-carbonyloxy)-2,15-dioxo-3,16-diaza-tricyclo[14.3.0.0^4,6]nonadec-7-ene-4-carboxylic acid] | < 10000 | < 1000 | – | –
CC1CN(C(=O)O[C@@H]2C[C@H]3C(=O)N[C@]4(C(=O)O)C[C@H]4C=CCCCCC[C@H](NC(=O)OC(C)(C)C)C(=O)N3C2)Cc2ccccc21 (stereo partly drawn) [AR00304067, (1S,4R,6S,14S,18R)-14-tert-Butoxycarbonylamino-18-(4-methyl-3,4-dihydro-1H-isoquinoline-2-carbonyloxy)-2,15-dioxo-3,16-diaza-tricyclo[14.3.0.0^4,6]nonadec-7-ene-4-carboxylic acid] | < 10000 | < 1000 | – | –
CC(C)[C@@H](NC(=O)c1ccc(N(C)C)nc1)C(=O)N[C@H]1CCCCC/C=C\[C@@H]2C[C@@]2(C(=O)O)NC(=O)[C@@H]2C[C@@H](OC(=O)N3CCc4ccccc4C3)CN2C1=O [AR00304072, (1S,4R,6S,14S,18R)-18-(3,4-Dihydro-1H-isoquinoline-2-carbonyloxy)-14-{2-[(6-dimethylamino-pyridine-3-carbonyl)-amino]-3-methyl-butyrylamino}-2,15-dioxo-3,16-diaza-tricyclo[14.3.0.0^4,6]nonadec-7-ene-4-carboxylic acid] | – | – | < 10000 | < 1000
CC(C)[C@@H](NC(=O)c1cccnc1)C(=O)N[C@H]1CCCCC/C=C\[C@@H]2C[C@@]2(C(=O)O)NC(=O)[C@@H]2C[C@@H](OC(=O)N3CCc4ccccc4C3)CN2C1=O [AR00304073, (1S,4R,6S,14S,18R)-18-(3,4-Dihydro-1H-isoquinoline-2-carbonyloxy)-14-{3-methyl-2-[(pyridine-3-carbonyl)-amino]-butyrylamino}-2,15-dioxo-3,16-diaza-tricyclo[14.3.0.0^4,6]nonadec-7-ene-4-carboxylic acid] | – | – | < 10000 | < 1000
O=C(N[C@H]1CCCCC/C=C\[C@@H]2C[C@@]2(C(=O)O)NC(=O)[C@@H]2C[C@@H](OC(=O)N3CCc4c(F)cccc4C3)CN2C1=O)OC1CCCC1 [AR00304074, (1S,4R,6S,14S,18R)-14-Cyclopentyloxycarbonylamino-18-(5-fluoro-3,4-dihydro-1H-isoquinoline-2-carbonyloxy)-2,15-dioxo-3,16-diaza-tricyclo[14.3.0.0^4,6]nonadec-7-ene-4-carboxylic acid] | < 10000 | < 1000 | – | –
O=C(N[C@H]1CCCCCC=C[C@@H]2C[C@@]2(C(=O)O)NC(=O)[C@@H]2C[C@@H](OC(=O)N3CCc4cccc(C(F)(F)F)c4C3)CN2C1=O)OC1CCCC1 [AR00304075, (1S,4R,6S,14S,18R)-14-Cyclopentyloxycarbonylamino-2,15-dioxo-18-(8-trifluoromethyl-3,4-dihydro-1H-isoquinoline-2-carbonyloxy)-3,16-diaza-tricyclo[14.3.0.0^4,6]nonadec-7-ene-4-carboxylic acid] | < 10000 | < 1000 | – | –
O=C(N[C@H]1CCCCC/C=C\[C@@H]2C[C@@]2(C(=O)O)NC(=O)[C@@H]2C[C@@H](OC(=O)N3Cc4ccccc4C3)CN2C1=O)OC1CCCC1 [AR00304076, (1S,4R,6S,14S,18R)-14-Cyclopentyloxycarbonylamino-18-(1,3-dihydro-isoindole-2-carbonyloxy)-2,15-dioxo-3,16-diaza-tricyclo[14.3.0.0^4,6]nonadec-7-ene-4-carboxylic acid] | < 1000 | < 100 | – | –
O=C(NC1CCCC1)N[C@H]1CCCCC/C=C\[C@@H]2C[C@@]2(C(=O)O)NC(=O)[C@@H]2C[C@@H](OC(=O)N3CCc4c(F)cccc4C3)CN2C1=O [AR00304077, (1S,4R,6S,14S,18R)-14-(3-Cyclopentyl-ureido)-18-(5-fluoro-3,4-dihydro-1H-isoquinoline-2-carbonyloxy)-2,15-dioxo-3,16-diaza-tricyclo[14.3.0.0^4,6]nonadec-7-ene-4-carboxylic acid] | < 10000 | < 100 | – | –
O=C(NC1CCCC1)N[C@H]1CCCCC/C=C\[C@@H]2C[C@@]2(C(=O)O)NC(=O)[C@@H]2C[C@@H](OC(=O)N3CCc4cccc(C(F)(F)F)c4C3)CN2C1=O [AR00304078, (1S,4R,6S,14S,18R)-14-(3-Cyclopentyl-ureido)-2,15-dioxo-18-(8-trifluoromethyl-3,4-dihydro-1H-isoquinoline-2-carbonyloxy)-3,16-diaza-tricyclo[14.3.0.0^4,6]nonadec-7-ene-4-carboxylic acid] | < 1000 | < 100 | – | –
O=C(NC1CCCC1)N[C@H]1CCCCC/C=C\[C@@H]2C[C@@]2(C(=O)O)NC(=O)[C@@H]2C[C@@H](OC(=O)N3Cc4ccccc4C3)CN2C1=O [AR00304079, (1S,4R,6S,14S,18R)-14-(3-Cyclopentyl-ureido)-18-(1,3-dihydro-isoindole-2-carbonyloxy)-2,15-dioxo-3,16-diaza-tricyclo[14.3.0.0^4,6]nonadec-7-ene-4-carboxylic acid] | < 1000 | < 100 | – | –
O=C(NC1CCCC1)N[C@H]1CCCCC/C=C\[C@@H]2C[C@@]2(C(=O)NS(=O)(=O)C2CC2)NC(=O)[C@@H]2C[C@@H](OC(=O)N3CCc4c(F)cccc4C3)CN2C1=O [AR00304080, (1S,4R,6S,14S,18R)-5-Fluoro-3,4-dihydro-1H-isoquinoline-2-carboxylic acid 14-(3-cyclopentyl-ureido)-4-cyclopropanesulfonylaminocarbonyl-2,15-dioxo-3,16-diaza-tricyclo[14.3.0.0^4,6]nonadec-7-en-18-yl ester] | < 100 | < 100 | – | –

Reference: patent publication US7491794B2, “Macrocyclic compounds as inhibitors of viral replication” (Intermune, Inc., priority 2003, dated 2009)
